Values after ≈ are worked out from the molar mass of the structure shown.
Columns and labels:
Type in all cases: functional
[1] = tested on: Escherichia coli; experiment: Antibacterial activity against Escherichia coli MTCC 443 after 24 hr by broth microdilution method; conditions: MTCC 443, 24 h
[2] = tested on: Candida albicans; experiment: Antifungal activity against Candida albicans MTCC 227 after 48 hr by broth microdilution method; conditions: MTCC 227, 48 h
[3] = tested on: Bacillus subtilis; experiment: Antibacterial activity against Bacillus subtilis MTCC 441 after 24 hr by broth microdilution method; conditions: MTCC 441, 24 h
[4] = tested on: Aspergillus fumigatus; experiment: Antifungal activity against Aspergillus fumigatus MTCC 3008 after 48 hr by broth microdilution method; conditions: MTCC 3008, 48 h
[5] = tested on: Salmonella typhi; experiment: Antibacterial activity against Salmonella enterica subsp. enterica serovar Typhi MTCC 98 after 24 hr by broth microdilution method; conditions: MTCC 98, 24 h
[6] = tested on: Streptococcus pneumoniae; experiment: Antibacterial activity against Streptococcus pneumoniae MTCC 1936 after 24 hr by broth microdilution method; conditions: MTCC 1936, 24 h
[7] = tested on: Clostridium tetani; experiment: Antibacterial activity against Clostridium tetani MTCC 449 after 24 hr by broth microdilution method; conditions: MTCC 449, 24 h
[8] = tested on: Vibrio cholerae; experiment: Antibacterial activity against Vibrio cholerae MTCC 3906 after 24 hr by broth microdilution method; conditions: MTCC 3906, 24 h

Structure (SMILES)	MIC [1]	MIC [2]	MIC [3]	MIC [4]	MIC [5]	MIC [6]	MIC [7]	MIC [8]
Cc1ccc(Sc2nc(N)c(C#N)c(-c3cc4ccc(C)cc4nc3Cl)c2C#N)cc1	200 µg/mL (≈ 453 µM)	> 1000 µg/mL	200 µg/mL (≈ 453 µM)	> 1000 µg/mL	250 µg/mL (≈ 566 µM)	200 µg/mL (≈ 453 µM)	200 µg/mL (≈ 453 µM)	200 µg/mL (≈ 453 µM)
N#Cc1c(N)nc(Sc2ccc(Cl)cc2)c(C#N)c1-c1cc2ccccc2nc1Cl	100 µg/mL (≈ 223 µM)	1000 µg/mL (≈ 2230 µM)	250 µg/mL (≈ 558 µM)	1000 µg/mL (≈ 2230 µM)	150 µg/mL (≈ 335 µM)	250 µg/mL (≈ 558 µM)	250 µg/mL (≈ 558 µM)	250 µg/mL (≈ 558 µM)
Cc1ccc(Sc2nc(N)c(C#N)c(-c3cc4ccccc4nc3Cl)c2C#N)cc1	100 µg/mL (≈ 234 µM)	> 1000 µg/mL	250 µg/mL (≈ 584 µM)	> 1000 µg/mL	100 µg/mL (≈ 234 µM)	200 µg/mL (≈ 467 µM)	250 µg/mL (≈ 584 µM)	62.5 µg/mL (≈ 146 µM)
Cc1ccc2nc(Cl)c(-c3c(C#N)c(N)nc(Sc4ccccc4)c3C#N)cc2c1	200 µg/mL (≈ 467 µM)	> 1000 µg/mL	500 µg/mL (≈ 1170 µM)	> 1000 µg/mL	200 µg/mL (≈ 467 µM)	250 µg/mL (≈ 584 µM)	500 µg/mL (≈ 1170 µM)	250 µg/mL (≈ 584 µM)
Cc1ccc2nc(Cl)c(-c3c(C#N)c(N)nc(Sc4ccc(Cl)cc4)c3C#N)cc2c1	62.5 µg/mL (≈ 135 µM)	500 µg/mL (≈ 1080 µM)	200 µg/mL (≈ 433 µM)	500 µg/mL (≈ 1080 µM)	100 µg/mL (≈ 216 µM)	200 µg/mL (≈ 433 µM)	250 µg/mL (≈ 541 µM)	200 µg/mL (≈ 433 µM)
Cc1ccc(Sc2nc(N)c(C#N)c(-c3cc4cc(C)ccc4nc3Cl)c2C#N)cc1	250 µg/mL (≈ 566 µM)	250 µg/mL (≈ 566 µM)	100 µg/mL (≈ 226 µM)	500 µg/mL (≈ 1130 µM)	200 µg/mL (≈ 453 µM)	100 µg/mL (≈ 226 µM)	500 µg/mL (≈ 1130 µM)	500 µg/mL (≈ 1130 µM)
COc1ccc2nc(Cl)c(-c3c(C#N)c(N)nc(Sc4ccccc4)c3C#N)cc2c1	500 µg/mL (≈ 1130 µM)	1000 µg/mL (≈ 2250 µM)	250 µg/mL (≈ 563 µM)	1000 µg/mL (≈ 2250 µM)	500 µg/mL (≈ 1130 µM)	250 µg/mL (≈ 563 µM)	200 µg/mL (≈ 451 µM)	500 µg/mL (≈ 1130 µM)
COc1ccc2nc(Cl)c(-c3c(C#N)c(N)nc(Sc4ccc(Cl)cc4)c3C#N)cc2c1	200 µg/mL (≈ 418 µM)	1000 µg/mL (≈ 2090 µM)	250 µg/mL (≈ 523 µM)	> 1000 µg/mL	200 µg/mL (≈ 418 µM)	250 µg/mL (≈ 523 µM)	200 µg/mL (≈ 418 µM)	200 µg/mL (≈ 418 µM)
COc1ccc2nc(Cl)c(-c3c(C#N)c(N)nc(Sc4ccc(C)cc4)c3C#N)cc2c1	500 µg/mL (≈ 1090 µM)	> 1000 µg/mL	500 µg/mL (≈ 1090 µM)	> 1000 µg/mL	500 µg/mL (≈ 1090 µM)	500 µg/mL (≈ 1090 µM)	500 µg/mL (≈ 1090 µM)	500 µg/mL (≈ 1090 µM)
N#Cc1c(N)nc(Sc2ccccc2)c(C#N)c1-c1cc2cc(Cl)ccc2nc1Cl	200 µg/mL (≈ 446 µM)	250 µg/mL (≈ 558 µM)	100 µg/mL (≈ 223 µM)	250 µg/mL (≈ 558 µM)	250 µg/mL (≈ 558 µM)	200 µg/mL (≈ 446 µM)	250 µg/mL (≈ 558 µM)	200 µg/mL (≈ 446 µM)
N#Cc1c(N)nc(Sc2ccccc2)c(C#N)c1-c1cc2ccccc2nc1Cl	200 µg/mL (≈ 483 µM)	500 µg/mL (≈ 1210 µM)	250 µg/mL (≈ 604 µM)	500 µg/mL (≈ 1210 µM)	200 µg/mL (≈ 483 µM)	250 µg/mL (≈ 604 µM)	500 µg/mL (≈ 1210 µM)	200 µg/mL (≈ 483 µM)
N#Cc1c(N)nc(Sc2ccc(Cl)cc2)c(C#N)c1-c1cc2cc(Cl)ccc2nc1Cl	250 µg/mL (≈ 518 µM)	200 µg/mL (≈ 414 µM)	250 µg/mL (≈ 518 µM)	500 µg/mL (≈ 1040 µM)	250 µg/mL (≈ 518 µM)	500 µg/mL (≈ 1040 µM)	500 µg/mL (≈ 1040 µM)	500 µg/mL (≈ 1040 µM)
Cc1ccc(Sc2nc(N)c(C#N)c(-c3cc4cc(Cl)ccc4nc3Cl)c2C#N)cc1	200 µg/mL (≈ 433 µM)	250 µg/mL (≈ 541 µM)	200 µg/mL (≈ 433 µM)	500 µg/mL (≈ 1080 µM)	200 µg/mL (≈ 433 µM)	250 µg/mL (≈ 541 µM)	200 µg/mL (≈ 433 µM)	200 µg/mL (≈ 433 µM)
Cc1ccc2cc(-c3c(C#N)c(N)nc(Sc4ccccc4)c3C#N)c(Cl)nc2c1	100 µg/mL (≈ 234 µM)	1000 µg/mL (≈ 2340 µM)	100 µg/mL (≈ 234 µM)	1000 µg/mL (≈ 2340 µM)	200 µg/mL (≈ 467 µM)	100 µg/mL (≈ 234 µM)	200 µg/mL (≈ 467 µM)	250 µg/mL (≈ 584 µM)
Cc1ccc2cc(-c3c(C#N)c(N)nc(Sc4ccc(Cl)cc4)c3C#N)c(Cl)nc2c1	500 µg/mL (≈ 1080 µM)	> 1000 µg/mL	250 µg/mL (≈ 541 µM)	> 1000 µg/mL	500 µg/mL (≈ 1080 µM)	250 µg/mL (≈ 541 µM)	250 µg/mL (≈ 541 µM)	500 µg/mL (≈ 1080 µM)
CC1(C)S[C@@H]2[C@H](NC(=O)[C@H](N)c3ccccc3)C(=O)N2[C@H]1C(=O)O [AMPICILLIN]	100 µg/mL (≈ 286 µM)	–	250 µg/mL (≈ 715 µM)	–	100 µg/mL (≈ 286 µM)	100 µg/mL (≈ 286 µM)	250 µg/mL (≈ 715 µM)	100 µg/mL (≈ 286 µM)
COC1=CC(=O)C[C@@H](C)[C@]12Oc1c(Cl)c(OC)cc(OC)c1C2=O [GRISEOFULVIN]	–	100 µg/mL (≈ 283 µM)	–	500 µg/mL (≈ 1420 µM)	–	–	–	–
CCn1cc(C(=O)O)c(=O)c2cc(F)c(N3CCNCC3)cc21 [NORFLOXACIN]	10 µg/mL (≈ 31.3 µM)	–	100 µg/mL (≈ 313 µM)	–	10 µg/mL (≈ 31.3 µM)	10 µg/mL (≈ 31.3 µM)	50 µg/mL (≈ 157 µM)	10 µg/mL (≈ 31.3 µM)

From ChEMBL document CHEMBL3046743, “Synthesis and in vitro antimicrobial evaluation of penta-substituted pyridine derivatives bearing the quinoline nucleus” (2012)
